Experimental data published in ChEMBL document CHEMBL1201862, “PubChem BioAssay data set” (2004).
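How tested: cells in 96-well plates exposed to compound for 48 hours at five concentrations. GI50 marks 50% less growth.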 Activity calls are given as the source filed them. Rule as the data show it: active = GI50 up to about 1.1 µM and inactive = higher.

Experiments:
Test in all cases: NCI tumour cell line growth inhibition, 48 h
[1] = system: OVCAR-3
[2] = system: A549
[3] = system: RPMI-8226
[4] = system: HOP-62
[5] = system: SNB-75
[6] = system: NCI/ADR-RES
[7] = system: HT-29
[8] = system: SK-MEL-2
[9] = system: TK-10
[10] = system: COLO 205
[11] = system: SF-295
[12] = system: 786-0
[13] = system: ACHN
[14] = system: UO-31
[15] = system: SK-MEL-5
[16] = system: K562
[17] = system: EKVX
[18] = system: SNB-19
[19] = system: NCI-H522
[20] = system: MDA-N

SMILES | GI50 [1] | GI50 [2] | GI50 [3] | GI50 [4] | GI50 [5] | GI50 [6] | GI50 [7] | GI50 [8] | GI50 [9] | GI50 [10] | GI50 [11] | GI50 [12] | GI50 [13] | GI50 [14] | GI50 [15] | GI50 [16] | GI50 [17] | GI50 [18] | GI50 [19] | GI50 [20]
C=CC1(C)CC(=O)C2(O)C(C)(O1)C(OC(C)=O)C(O)C1C(C)(C)CCC(O)C12C (stereo not drawn) | > 150 µM (inactive) | > 150 µM (inactive) | 27.1 µM (inactive) | 59.7 µM (inactive) | 52 µM (inactive) | 70.6 µM (inactive) | 49.8 µM (inactive) | > 143 µM (inactive) | 1.45 µM (inactive) | 104 µM (inactive) | > 142 µM (inactive) | > 100 µM (inactive) | > 100 µM (inactive) | 30.5 µM (inactive) | 89.3 µM (inactive) | > 150 µM (inactive) | > 150 µM (inactive) | > 150 µM (inactive) | 132 µM (inactive) | –
C=C(C)[C@H]1CC[C@@]2(C)C(C1)[C@H](C)CC[C@@H]2O (stereo partly drawn) | > 100 µM (inactive) | > 100 µM (inactive) | > 100 µM (inactive) | > 100 µM (inactive) | > 100 µM (inactive) | – | 70.5 µM (inactive) | > 100 µM (inactive) | > 100 µM (inactive) | > 100 µM (inactive) | > 100 µM (inactive) | > 100 µM (inactive) | > 100 µM (inactive) | > 100 µM (inactive) | > 100 µM (inactive) | > 100 µM (inactive) | > 100 µM (inactive) | > 100 µM (inactive) | 47 µM (inactive) | –
Cc1cn(C2CC(ON3C(=O)c4ccccc4C3=O)C(CO)O2)c(=O)[nH]c1=O (stereo not drawn) | > 10 µM (inactive) | > 10 µM (inactive) | – | – | > 10 µM (inactive) | > 10 µM (inactive) | > 10 µM (inactive) | > 10 µM (inactive) | > 10 µM (inactive) | – | > 10 µM (inactive) | > 10 µM (inactive) | > 10 µM (inactive) | > 10 µM (inactive) | – | > 10 µM (inactive) | > 10 µM (inactive) | > 10 µM (inactive) | > 10 µM (inactive) | –
Cc1cnc2c(c1)C(=O)C1=C(OC(C)(C)CC1O)C2=O (stereo not drawn) | 11.1 µM (inactive) | 16.2 µM (inactive) | 13.6 µM (inactive) | 19.4 µM (inactive) | 14.4 µM (inactive) | – | 20.6 µM (inactive) | > 100 µM (inactive) | 18.5 µM (inactive) | 16.7 µM (inactive) | 13.3 µM (inactive) | 14.9 µM (inactive) | 15.2 µM (inactive) | 15.7 µM (inactive) | 14 µM (inactive) | 16.8 µM (inactive) | 20.7 µM (inactive) | 16.7 µM (inactive) | 15.8 µM (inactive) | –
c1ccc(C2=NN3CN(N2)c2ccccc2OCCCOc2ccccc23)cc1 | > 100 µM (inactive) | > 100 µM (inactive) | 19.1 µM (inactive) | > 100 µM (inactive) | 88.5 µM (inactive) | – | > 100 µM (inactive) | > 100 µM (inactive) | > 100 µM (inactive) | > 100 µM (inactive) | > 100 µM (inactive) | > 100 µM (inactive) | > 100 µM (inactive) | 77.4 µM (inactive) | > 100 µM (inactive) | > 100 µM (inactive) | > 100 µM (inactive) | > 100 µM (inactive) | 34.7 µM (inactive) | –
Cn1c(O)c(C(=O)Nc2ccc([N+](=O)[O-])cc2)c(=O)n(C)c1=S | 2.37 µM (inactive) | 3.42 µM (inactive) | 3.15 µM (inactive) | 1.23 µM (inactive) | 1.63 µM (inactive) | 2.79 µM (inactive) | 2.23 µM (inactive) | 1.82 µM (inactive) | 2.77 µM (inactive) | 3.31 µM (inactive) | 1.31 µM (inactive) | 2.67 µM (inactive) | 2.48 µM (inactive) | 1.54 µM (inactive) | 0.776 µM (active) | 3.53 µM (inactive) | 2.9 µM (inactive) | 2.16 µM (inactive) | 2.32 µM (inactive) | –
O=C(O)c1ccc(C2=Cc3cc(Cl)ccc3OC2)cc1 | > 100 µM (inactive) | > 100 µM (inactive) | > 100 µM (inactive) | > 100 µM (inactive) | 22 µM (inactive) | – | > 100 µM (inactive) | > 100 µM (inactive) | > 100 µM (inactive) | > 100 µM (inactive) | > 100 µM (inactive) | > 100 µM (inactive) | > 100 µM (inactive) | 90.4 µM (inactive) | > 100 µM (inactive) | > 100 µM (inactive) | > 100 µM (inactive) | > 100 µM (inactive) | > 100 µM (inactive) | –
S=C(Nc1ccc(/N=N/c2ccccc2)cc1)SCc1ccccc1 | 15.6 µM (inactive) | 16.9 µM (inactive) | 5.04 µM (inactive) | 20.2 µM (inactive) | 18.4 µM (inactive) | 17.8 µM (inactive) | 23.6 µM (inactive) | 21.4 µM (inactive) | 12.5 µM (inactive) | 23.1 µM (inactive) | 17.9 µM (inactive) | 17.8 µM (inactive) | 17.5 µM (inactive) | 18.8 µM (inactive) | 15.7 µM (inactive) | 19.5 µM (inactive) | 24.8 µM (inactive) | 18.5 µM (inactive) | 16.9 µM (inactive) | –
CC(C)(C)OC(=O)N1N=NC2C3OC(CC3=O)C21 (stereo not drawn) | > 100 µM (inactive) | > 100 µM (inactive) | > 100 µM (inactive) | > 100 µM (inactive) | > 100 µM (inactive) | – | > 100 µM (inactive) | > 100 µM (inactive) | > 100 µM (inactive) | > 100 µM (inactive) | > 10 µM (inactive) | > 100 µM (inactive) | > 100 µM (inactive) | > 100 µM (inactive) | > 10 µM (inactive) | > 100 µM (inactive) | > 100 µM (inactive) | > 100 µM (inactive) | > 100 µM (inactive) | –
COC(=O)C1=C(C(=O)NNc2ccccc2)N(c2cccnc2Cl)C(c2ccccc2)=CC1c1ccccc1 (stereo not drawn) | 31.7 µM (inactive) | 40.9 µM (inactive) | 14.1 µM (inactive) | > 100 µM (inactive) | > 100 µM (inactive) | – | 58.6 µM (inactive) | 22.4 µM (inactive) | 54.6 µM (inactive) | 66.7 µM (inactive) | 19.6 µM (inactive) | 86.3 µM (inactive) | 76.7 µM (inactive) | – | 34 µM (inactive) | 20 µM (inactive) | > 100 µM (inactive) | > 100 µM (inactive) | > 100 µM (inactive) | 20.5 µM (inactive)
O=C(OCC1CO1)c1cccs1 (stereo not drawn) | > 100 µM (inactive) | > 100 µM (inactive) | > 100 µM (inactive) | > 100 µM (inactive) | 37 µM (inactive) | – | > 100 µM (inactive) | > 100 µM (inactive) | > 100 µM (inactive) | > 100 µM (inactive) | > 100 µM (inactive) | > 100 µM (inactive) | > 100 µM (inactive) | > 100 µM (inactive) | > 100 µM (inactive) | > 100 µM (inactive) | > 100 µM (inactive) | > 100 µM (inactive) | 17 µM (inactive) | –
CC1=C(C(=O)Nc2ccccc2)C(c2cc(Cl)cc(Cl)c2)C(C(=O)Nc2ccccc2)=C(C)N1 | 8.22 µM (inactive) | 20.8 µM (inactive) | 3.84 µM (inactive) | 13.6 µM (inactive) | 10.8 µM (inactive) | – | 4.65 µM (inactive) | 12.1 µM (inactive) | 16.7 µM (inactive) | 17 µM (inactive) | 10.9 µM (inactive) | 9.04 µM (inactive) | 8.15 µM (inactive) | 13.9 µM (inactive) | 13.8 µM (inactive) | 1.35 µM (inactive) | 17.4 µM (inactive) | 14.2 µM (inactive) | 5.36 µM (inactive) | –
Cc1ccccc1-c1c(N)nc(N)nc1C(=O)Nc1nccs1 | > 100 µM (inactive) | > 100 µM (inactive) | > 100 µM (inactive) | > 100 µM (inactive) | > 100 µM (inactive) | – | > 100 µM (inactive) | > 100 µM (inactive) | > 100 µM (inactive) | > 100 µM (inactive) | > 100 µM (inactive) | > 100 µM (inactive) | > 100 µM (inactive) | > 100 µM (inactive) | > 100 µM (inactive) | > 100 µM (inactive) | > 100 µM (inactive) | > 100 µM (inactive) | > 100 µM (inactive) | –
COC(C(=O)NCCCCNC(=O)C(OC)c1ccccc1)c1ccccc1 (stereo not drawn) | > 100 µM (inactive) | > 100 µM (inactive) | > 100 µM (inactive) | > 100 µM (inactive) | > 100 µM (inactive) | – | > 100 µM (inactive) | > 100 µM (inactive) | > 100 µM (inactive) | > 100 µM (inactive) | > 100 µM (inactive) | > 100 µM (inactive) | > 100 µM (inactive) | > 100 µM (inactive) | > 100 µM (inactive) | > 100 µM (inactive) | > 100 µM (inactive) | > 100 µM (inactive) | > 100 µM (inactive) | –
CC12CCC(CC1)C(C)(C)O2 [EUCALYPTOL] | 36.1 µM (inactive) | – | 23.4 µM (inactive) | 12.6 µM (inactive) | 39.3 µM (inactive) | 45.2 µM (inactive) | 59.4 µM (inactive) | 47.3 µM (inactive) | > 100 µM (inactive) | 18.6 µM (inactive) | 21.5 µM (inactive) | > 100 µM (inactive) | > 100 µM (inactive) | 27.7 µM (inactive) | 5.5 µM (inactive) | – | 38 µM (inactive) | – | 10.1 µM (inactive) | –
